From patent US8673942B2, “Fused ring compounds and use thereof” (Takeda Pharmaceutical Company Limited, priority 2008, dated 2014)

Question: Which melting point does the source give for `CNC(=O)CC1CN=C(c2cc3cc(Oc4ccc(S(C)(=O)=O)nc4)cc(OC)c3[nH]2)S1` (single isomer, unassigned) [Example 32, 2-[2-(7-Methoxy-5-{[6-(methylsulfonyl)pyridin-3-yl]oxy}-1H-indol-2-yl)-4,5-dihydro-1,3-thiazol-5-yl]-N-methylacetamide] here?
Answer: The melting point was 195 to 197 °C.

Question: Which melting point does the source give for `CC(C)Oc1cc(Oc2ccc(S(C)(=O)=O)cn2)cc2cc(C3=NCC(CC(C)(C)O)S3)[nH]c12` (single isomer, unassigned) [Example 64, 2-Methyl-1-{2-[7-(1-methylethoxy)-5-{[5-(methylsulfonyl)pyridin-2-yl]oxy}-1H-indol-2-yl]-4,5-dihydro-1,3-thiazol-5-yl}propan-2-ol] here?
Answer: The melting point was 145 to 146 °C.

Question: For `CS(=O)(=O)c1ccc(Oc2cc(OCc3ccccc3)c3[nH]c(C4=NCC(CCO)S4)cc3c2)cc1` (stereo not drawn) [Example 2, 2-(2-{7-(Benzyloxy)-5-[4-(methylsulfonyl)phenoxy]-1H-indol-2-yl}-4,5-dihydro-1,3-thiazol-5-yl)ethanol], which melting point is on record?
Answer: Its melting point is 97 to 98 °C.

Question: For `CS(=O)(=O)c1ccc(Oc2cc(OCc3ccccc3)c3[nH]c(C4=NCC(CC(N)=O)S4)cc3c2)cc1` (stereo not drawn) [Example 4, 2-(2-{7-(Benzyloxy)-5-[4-(methylsulfonyl)phenoxy]-1H-indol-2-yl}-4,5-dihydro-1,3-thiazol-5-yl)acetamide], which melting point is on record?
Answer: Its melting point is 134 to 135 °C.

Question: With `CS(=O)(=O)c1ccc(Oc2cc(OCc3cccc(Cl)n3)c3[nH]c(C4=NCC(CCO)S4)cc3c2)cc1` (stereo not drawn) [Example 6, 2-(2-{7-[(6-Chloropyridin-2-yl)methoxy]-5-[4-(methylsulfonyl)phenoxy]-1H-indol-2-yl}-4,5-dihydro-1,3-thiazol-5-yl)ethanol] as the molecule, how does the melting point read?
Answer: The melting point was 93 to 94 °C.

Question: Which melting point does the source give for `CS(=O)(=O)c1ccc(Oc2cc(OCc3cccc(Cl)n3)c3[nH]c(C4=NCC(CC(N)=O)S4)cc3c2)cc1` (stereo not drawn) [Example 8, 2-(2-{7-[(6-Chloropyridin-2-yl)methoxy]-5-[4-(methylsulfonyl)phenoxy]-1H-indol-2-yl}-4,5-dihydro-1,3-thiazol-5-yl)acetamide] here?
Answer: Its melting point is 147 to 148 °C.

Question: For `CCOC(=O)c1nnc(-c2cc3cc(Oc4ccc(S(C)(=O)=O)cc4)cc(OCc4ccccc4)c3[nH]2)s1` [Example 20, Ethyl 5-{7-(benzyloxy)-5-[4-(methylsulfonyl)phenoxy]-1H-indol-2-yl}-1,3,4-thiadiazole-2-carboxylate], which melting point is on record?
Answer: Its melting point is 194 to 195 °C.

Question: With `CS(=O)(=O)c1ccc(Oc2cc(OCc3ccccc3)c3[nH]c(-c4nnc(CO)s4)cc3c2)cc1` [Example 21, (5-{7-(Benzyloxy)-5-[4-(methylsulfonyl)phenoxy]-1H-indol-2-yl}-1,3,4-thiadiazol-2-yl)methanol] as the molecule, how does the melting point read?
Answer: Its melting point is 159 to 160 °C.

Question: With `CS(=O)(=O)c1ccc(Oc2cc(OCc3ccccc3)c3[nH]c(-c4ncc(CO)s4)cc3c2)cc1` [Example 23, (2-{7-(Benzyloxy)-5-[4-(methylsulfonyl)phenoxy]-1H-indol-2-yl}-1,3-thiazol-5-yl)methanol] as the molecule, how does the melting point read?
Answer: Its melting point is 125 to 126 °C.

Question: With `COc1cc(Oc2ccc(S(C)(=O)=O)nc2)cc2cc(C3=NCC(CC(N)=O)S3)[nH]c12` (stereo not drawn) [Example 29, 2-[2-(7-Methoxy-5-{[6-(methylsulfonyl)pyridin-3-yl]oxy}-1H-indol-2-yl)-4,5-dihydro-1,3-thiazol-5-yl]acetamide] as the molecule, how does the melting point read?
Answer: The melting point was 225 to 227 °C.

Question: With `CNC(=O)CC1CN=C(c2cc3cc(Oc4ccc(S(C)(=O)=O)nc4)cc(OC)c3[nH]2)S1` (stereo not drawn) [Example 30, 2-[2-(7-Methoxy-5-{[6-(methylsulfonyl)pyridin-3-yl]oxy}-1H-indol-2-yl)-4,5-dihydro-1,3-thiazol-5-yl]-N-Methylacetamide] as the molecule, how does the melting point read?
Answer: Its melting point is 201 to 202 °C.

Question: Which melting point does the source give for `COCC(COC)Oc1cc(Oc2ccc(S(C)(=O)=O)nc2)cc2cc(C3=NCC(CC(N)=O)S3)[nH]c12` (stereo not drawn) [Example 35, 2-[2-(7-[2-Methoxy-1-(methoxymethyl)ethoxy]-5-{[6-(methylsulfonyl)pyridin-3-yl]oxy}-1H-indol-2-yl)-4,5-dihydro-1,3-thiazol-5-yl]acetamide] here?
Answer: The melting point was 172 to 173 °C.

Question: Which melting point does the source give for `CNC(=O)CC1CN=C(c2cc3cc(Oc4ccc(S(C)(=O)=O)nc4)cc(OC(COC)COC)c3[nH]2)S1` (stereo not drawn) [Example 36, 2-[2-(7-[2-Methoxy-1-(methoxymethyl)ethoxy]-5-{[6-(methylsulfonyl)pyridin-3-yl]oxy}-1H-indol-2-yl)-4,5-dihydro-1,3-thiazol-5-yl]-N-methylacetamide] here?
Answer: Its melting point is 149 to 151 °C.

Question: For `COCC(COC)Oc1cc(Oc2ccc(S(C)(=O)=O)nc2)cc2cc(C3=NCC(CCO)S3)[nH]c12` (stereo not drawn) [Example 37, 2-[2-(7-[2-Methoxy-1-(methoxymethyl)ethoxy]-5-{[6-(methylsulfonyl)pyridin-3-yl]oxy}-1H-indol-2-yl)-4,5-dihydro-1,3-thiazol-5-yl]ethanol], which melting point is on record?
Answer: The melting point was 69 to 71 °C.

Question: With `CNC(=O)CC1CN=C(c2cc3cc(Oc4ccc(S(C)(=O)=O)cn4)cc(OC)c3[nH]2)S1` (stereo not drawn) [Example 42, 2-[2-(7-Methoxy-5-{[5-(methylsulfonyl)pyridin-2-yl]oxy}-1H-indol-2-yl)-4,5-dihydro-1,3-thiazol-5-yl]-N-methylacetamide] as the molecule, how does the melting point read?
Answer: The melting point was 207 to 209 °C.

Question: For `CNC(=O)CC1CN=C(c2cc3cc(Oc4ccc(S(C)(=O)=O)cn4)cc(OC(COC)COC)c3[nH]2)S1` (stereo not drawn) [Example 46, 2-[2-(7-[2-Methoxy-1-(methoxymethyl)ethoxy]-5-{[5-(methylsulfonyl)pyridin-2-yl]oxy}-1H-indol-2-yl)-4,5-dihydro-1,3-thiazol-5-yl]-N-methylacetamide], which melting point is on record?
Answer: The melting point was 123 to 125 °C.

Question: Which melting point does the source give for `COCc1ccc(Oc2cc(OC)c3[nH]c(C4=NCC(CC(N)=O)S4)cc3c2)cn1` (stereo not drawn) [Example 49, 2-[2-(7-Methoxy-5-{[6-(methoxymethyl)pyridin-3-yl]oxy}-1H-indol-2-yl)-4,5-dihydro-1,3-thiazol-5-yl]acetamide] here?
Answer: Its melting point is 135 to 136 °C.

Question: With `CNC(=O)CC1CN=C(c2cc3cc(Oc4ccc(COC)nc4)cc(OC)c3[nH]2)S1` (stereo not drawn) [Example 50, 2-[2-(7-Methoxy-5-{[6-(methoxymethyl)pyridin-3-yl]oxy}-1H-indol-2-yl)-4,5-dihydro-1,3-thiazol-5-yl]-N-methylacetamide] as the molecule, how does the melting point read?
Answer: Its melting point is 102 to 104 °C.

Question: Which melting point does the source give for `CCNC(=O)CC1CN=C(c2cc3cc(Oc4ccc(COC)nc4)cc(OC)c3[nH]2)S1` (stereo not drawn) [Example 51, N-Ethyl-2-[2-(7-methoxy-5-{[6-(methoxymethyl)pyridin-3-yl]oxy}-1H-indol-2-yl)-4,5-dihydro-1,3-thiazol-5-yl]acetamide] here?
Answer: Its melting point is 130 to 132 °C.

Question: For `COCC(C)Oc1cc(Oc2ccc(S(C)(=O)=O)cc2)cc2cc(C3=NCC(CC(C)(C)O)S3)[nH]c12` (stereo not drawn) [Example 60, 1-(2-{7-(2-Methoxy-1-methylethoxy)-5-[4-(methylsulfonyl)phenoxy]-1H-indol-2-yl}-4,5-dihydro-1,3-thiazol-5-yl)-2-methylpropan-2-ol], which melting point is on record?
Answer: The melting point was 112 to 113 °C.

Question: With `CC(C)Oc1cc(Oc2ccc(S(C)(=O)=O)cn2)cc2cc(C3=NCC(CCO)S3)[nH]c12` (stereo not drawn) [Example 62] as the molecule, how does the melting point read?
Answer: Its melting point is 172 to 173 °C.

Question: For `CC(C)Oc1cc(Oc2ccc(S(C)(=O)=O)cn2)cc2cc(C3=NCC(CC(C)(C)O)S3)[nH]c12` (stereo not drawn) [Example 63, 2-Methyl-1-{2-[7-(1-methylethoxy)-5-{[5-(methylsulfonyl)pyridin-2-yl]oxy}-1H-indol-2-yl]-4,5-dihydro-1,3-thiazol-5-yl}propan-2-ol], which melting point is on record?
Answer: Its melting point is 151 to 153 °C.

Question: For `CC(C)Oc1cc(Oc2ccc(S(C)(=O)=O)cn2)cc2cc(C3=NCC(CC(N)=O)S3)[nH]c12` (stereo not drawn) [Example 67, 2-{2-[7-(1-Methylethoxy)-5-{[5-(methylsulfonyl)pyridin-2-yl]oxy}-1H-indol-2-yl]-4,5-dihydro-1,3-thiazol-5-yl}acetamide], which melting point is on record?
Answer: The melting point was 212 to 213 °C.

Question: Which melting point does the source give for `CNC(=O)CC1CN=C(c2cc3cc(Oc4ccc(S(C)(=O)=O)cn4)cc(OC(C)C)c3[nH]2)S1` (stereo not drawn) [Example 68, N-Methyl-2-{2-[7-(1-methylethoxy)-5-{[5-(methylsulfonyl)pyridin-2-yl]oxy}-1H-indol-2-yl]-4,5-dihydro-1,3-thiazol-5-yl}acetamide] here?
Answer: Its melting point is 190 to 192 °C.

Question: With `COCc1ccc(Oc2cc(OC(C)C)c3[nH]c(C4=NCC(CC(=O)NC5CC5)S4)cc3c2)cn1` (stereo not drawn) [Example 72, N-Cyclopropyl-2-{2-[5-{[6-(methoxymethyl)pyridin-3-yl]oxy}-7-(1-methylethoxy)-1H-indol-2-yl]-4,5-dihydro-1,3-thiazol-5-yl}acetamide] as the molecule, how does the melting point read?
Answer: Its melting point is 100 to 101 °C.

Question: For `COc1cc(Oc2ccc(S(C)(=O)=O)nc2)cc2cc(C3=NCC(CC(=O)NCC(C)(C)O)S3)[nH]c12` (stereo not drawn) [Example 73, N-(2-Hydroxy-2-methylpropyl)-2-[2-(7-methoxy-5-{[6-(methylsulfonyl)pyridin-3-yl]oxy}-1H-indol-2-yl)-4,5-dihydro-1,3-thiazol-5-yl]acetamide], which melting point is on record?
Answer: The melting point was 200 to 201 °C.

Question: Which melting point does the source give for `COc1cc(Oc2ccc(S(C)(=O)=O)nc2)cc2cc(C3=NCC(CC(=O)NC4CC4)S3)[nH]c12` (stereo not drawn) [Example 76, N-Cyclopropyl-2-[2-(7-methoxy-5-{[6-(methylsulfonyl)pyridin-3-yl]oxy}-1H-indol-2-yl)-4,5-dihydro-1,3-thiazol-5-yl]acetamide] here?
Answer: Its melting point is 248 to 249 °C.

Question: For `CCNC(=O)CC1CN=C(c2cc3cc(Oc4ccc(S(C)(=O)=O)nc4)cc(OC)c3[nH]2)S1` (stereo not drawn) [Example 77, N-Ethyl-2-[2-(7-methoxy-5-{[6-(methylsulfonyl)pyridin-3-yl]oxy}-1H-indol-2-yl)-4,5-dihydro-1,3-thiazol-5-yl]acetamide], which melting point is on record?
Answer: Its melting point is 236 to 237 °C.

Question: For `COCC(C)Oc1cc(Oc2ccc(S(C)(=O)=O)nc2)cc2cc(C3=NCC(CCO)S3)[nH]c12` (stereo not drawn) [Example 84, 2-{2-[7-(2-Methoxy-1-methylethoxy)-5-{[6-(methylsulfonyl)pyridin-3-yl]oxy}-1H-indol-2-yl]-4,5-dihydro-1,3-thiazol-5-yl}ethanol], which melting point is on record?
Answer: Its melting point is 138 to 139 °C.

Question: For `COCC(C)Oc1cc(Oc2ccc(S(C)(=O)=O)nc2)cc2cc(C3=NCC(CC(N)=O)S3)[nH]c12` (stereo not drawn) [Example 86, 2-{2-[7-(2-Methoxy-1-methylethoxy)-5-{[6-(methylsulfonyl)pyridin-3-yl]oxy}-1H-indol-2-yl]-4,5-dihydro-1,3-thiazol-5-yl}acetamide], which melting point is on record?
Answer: The melting point was 131 to 132 °C.
